Drawing on patent publication US11771709B2, “ALK protein degradation agent and anti-tumor application thereof” (ShanghaiTech University, priority 2017, dated 2023), this text covers DC50 and IC50 for 5 molecules.

Format in all cases: cell-based
Assay [1] addresses T1, ALK protein in H3122 (EML4-ALK) cells (Homo sapiens, UniProt Q9UM73).
T1 construct: EML4 (Echinoderm microtubule-associated protein-like 4, Q9HC35) fusion partner, variant 1; host or cells: NCI-H3122 lung adenocarcinoma cells; the other entry of the earlier key: EML4 (Q9HC35, Echinoderm microtubule-associated protein-like 4)
Briefly: Western blot of ALK protein level (degradation, DC50), ALK phosphorylation and downstream signaling in H3122 cells. Particulars: ALK protein degradation in H3122 cells. (A western blot detects proteins with antibodies after separation by electrophoresis.)

In the next assay the test system is SR (NPM-ALK) cells. Briefly: Growth inhibition IC50 in ALCL SR cells (CCK8/WST, 72 hours). Conditions: 72 h, SR cells, WST; Brigatinib-based PROTAD molecules (Table 3).
Assay [2] concerns the target T2, ALK protein in SR (NPM-ALK) cells (Homo sapiens, UniProt Q9UM73).
T2 construct: NPM (nucleophosmin, NPM1, P06748) fusion partner; host or cells: SR (ALCL) cells; the other entry of the earlier key: NPM1 (P06748, Nucleophosmin)
The experiment in a line: Western blot of ALK protein level (degradation, DC50), ALK phosphorylation and downstream signaling in SR cells. Conditions: ALK protein degradation in SR cells.

T2 sequence (Q9UM73 with tags, fused parts or gaps): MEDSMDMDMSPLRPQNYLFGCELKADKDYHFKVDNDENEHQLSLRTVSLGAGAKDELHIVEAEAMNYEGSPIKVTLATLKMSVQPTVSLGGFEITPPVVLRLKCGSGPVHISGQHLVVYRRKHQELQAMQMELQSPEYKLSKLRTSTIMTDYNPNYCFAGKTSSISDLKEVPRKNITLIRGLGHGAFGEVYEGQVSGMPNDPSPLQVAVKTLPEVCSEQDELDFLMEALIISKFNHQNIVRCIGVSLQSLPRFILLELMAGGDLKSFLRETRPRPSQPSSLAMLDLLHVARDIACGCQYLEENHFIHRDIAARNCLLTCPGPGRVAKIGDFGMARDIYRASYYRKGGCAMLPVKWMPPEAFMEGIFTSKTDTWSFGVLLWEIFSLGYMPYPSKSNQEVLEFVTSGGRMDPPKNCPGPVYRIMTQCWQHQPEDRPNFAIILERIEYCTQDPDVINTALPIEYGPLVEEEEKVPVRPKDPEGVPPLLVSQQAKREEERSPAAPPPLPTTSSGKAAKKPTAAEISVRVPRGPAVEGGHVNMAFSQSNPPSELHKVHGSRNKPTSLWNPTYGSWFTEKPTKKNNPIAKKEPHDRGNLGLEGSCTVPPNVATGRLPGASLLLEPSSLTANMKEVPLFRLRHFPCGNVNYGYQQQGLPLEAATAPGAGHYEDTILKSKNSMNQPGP
T1 sequence (Q9UM73 with tags, fused parts or gaps): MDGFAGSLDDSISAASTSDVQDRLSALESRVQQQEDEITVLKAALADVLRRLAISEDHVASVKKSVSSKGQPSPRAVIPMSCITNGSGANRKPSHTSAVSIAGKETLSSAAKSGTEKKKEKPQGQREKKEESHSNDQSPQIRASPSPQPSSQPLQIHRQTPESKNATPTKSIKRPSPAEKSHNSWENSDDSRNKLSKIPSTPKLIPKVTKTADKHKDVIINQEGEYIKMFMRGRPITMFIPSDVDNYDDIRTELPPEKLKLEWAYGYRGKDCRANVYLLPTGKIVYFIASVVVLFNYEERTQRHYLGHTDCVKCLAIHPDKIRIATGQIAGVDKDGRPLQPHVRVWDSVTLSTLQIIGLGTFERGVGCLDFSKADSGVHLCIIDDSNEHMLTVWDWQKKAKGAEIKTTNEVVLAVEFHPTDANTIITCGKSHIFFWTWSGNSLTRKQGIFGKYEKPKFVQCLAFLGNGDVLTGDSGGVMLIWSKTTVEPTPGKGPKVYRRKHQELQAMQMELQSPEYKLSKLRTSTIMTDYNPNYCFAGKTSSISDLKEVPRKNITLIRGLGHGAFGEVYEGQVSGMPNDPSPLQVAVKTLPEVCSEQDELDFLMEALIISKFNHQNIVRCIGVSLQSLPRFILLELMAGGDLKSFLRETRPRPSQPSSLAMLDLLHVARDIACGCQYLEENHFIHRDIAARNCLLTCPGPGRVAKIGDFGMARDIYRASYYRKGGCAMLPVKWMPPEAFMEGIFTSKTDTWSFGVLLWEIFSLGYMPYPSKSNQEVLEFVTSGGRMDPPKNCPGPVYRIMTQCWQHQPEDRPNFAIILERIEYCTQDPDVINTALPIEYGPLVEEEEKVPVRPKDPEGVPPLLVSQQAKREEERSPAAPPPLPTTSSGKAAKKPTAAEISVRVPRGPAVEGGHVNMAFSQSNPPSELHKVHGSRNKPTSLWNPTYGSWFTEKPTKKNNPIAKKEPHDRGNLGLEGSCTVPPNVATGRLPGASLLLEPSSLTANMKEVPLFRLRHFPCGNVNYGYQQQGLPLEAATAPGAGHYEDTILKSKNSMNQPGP

The term DC50 denotes the midpoint of the concentration-degradation curve. A lower DC50 goes with degradation at low concentration. By IC50 is commonly meant the midpoint of a concentration-inhibition curve. A low value points to greater potency. Consider `COc1cc(N2CCC(N3CCN(C(=O)CCCCCCC(=O)N[C@H](C(=O)N4C[C@H](O)C[C@H]4C(=O)NCc4ccc(-c5scnc5C)cc4)C(C)(C)C)CC3)CC2)ccc1Nc1ncc(Cl)c(Nc2ccccc2P(C)(C)=O)n1` [SIAIS164124, (2S,4R)-1-((S)-2-(8-(4-(-(4-((5-chloro-4-((2-(dimethylphosphoryl)phenyl)amino)pyrimidin-2-yl)amino)-3-methoxyphenyl)piperidin-4-yl)piperazin-1-yl)-8-oxooctanamido)-3,3-dimethylbutanoyl)-4-hydroxy-N-(4-(4-methylthiazol-5-yl)benzyl)pyrrolidine-2-carboxamide], for which the DC50 was in the range of 100 to 500 nM in assay [1] and 1 to 10 nM in assay [2]. In the assay with SR (NPM-ALK) cells, half-maximal inhibition (IC50) required 0.0095 ± 0.0081 µM.

Take `COc1cc(N2CCC(N3CCN(C(=O)CCCCCCCC(=O)N[C@H](C(=O)N4C[C@H](O)C[C@H]4C(=O)NCc4ccc(-c5scnc5C)cc4)C(C)(C)C)CC3)CC2)ccc1Nc1ncc(Cl)c(Nc2ccccc2P(C)(C)=O)n1` [SIAIS164125, (2S,4R)-1-((S)-2-(9-(4-(1-(4-((5-chloro-4-((2-(dimethylphosphoryl)phenyl)amino)pyrimidin-2-yl)amino)-3-methoxyphenyl)piperidin-4-yl)piperazin-1-yl)-9-oxononanamido)-3,3-dimethylbutanoyl)-4-hydroxy-N-(4-(4-methylthiazol-5-yl)benzyl)pyrrolidine-2-carboxamide]: the DC50 in assay [1] was 10 to 50 nM; in assay [2] it was 1 to 10 nM. The same molecule gave an IC50 in the assay on SR (NPM-ALK) cells of 0.009 ± 0.0057 µM.

`COc1cc(N2CCC(N3CCN(C(=O)CCCCCCCCC(=O)N[C@H](C(=O)N4C[C@H](O)C[C@H]4C(=O)NCc4ccc(-c5scnc5C)cc4)C(C)(C)C)CC3)CC2)ccc1Nc1ncc(Cl)c(Nc2ccccc2P(C)(C)=O)n1` [SIAIS164126, (2S,4R)-1-((S)-2-(10-(4-(1-(4-((5-chloro-4-((2-(dimethylphosphoryl)phenyl)amino)pyrimidin-2-yl)amino)-3-methoxyphenyl)piperidin-4-yl)piperazin-1-yl)-10-oxodecanamido)-3,3-dimethylbutanoyl)-4-hydroxy-N-(4-(4-methylthiazol-5-yl)benzyl)pyrrolidine-2-carboxamide]: the DC50 in assay [1] lay in the range of 10 to 50 nM; in assay [2] it was 1 to 10 nM. This molecule showed a half-maximal inhibitory concentration (IC50) in the assay on SR (NPM-ALK) cells of 0.008 ± 0.0067 µM.

With `COc1cc(N2CCC(NC(=O)CCC(=O)N[C@H](C(=O)N3C[C@H](O)C[C@H]3C(=O)NCc3ccc(-c4scnc4C)cc3)C(C)(C)C)CC2)ccc1Nc1ncc(Cl)c(Nc2ccccc2P(C)(C)=O)n1` [SIAIS164143, N1-(1-(4-((5-chloro-4-((2-(dimethylphosphoryl)phenyl)amino)pyrimidin-2-yl)amino)-3-methoxyphenyl)piperidin-4-yl)-N4-((S)-1-((2S,4R)-4-hydroxy-2-((4-(4-methylthiazol-5-yl)benzyl)carbamoyl)pyrrolidin-1-yl)-3,3-dimethyl-1-oxobutan-2-yl) succinamide], the DC50 in assay [1] is 50 to 100 nM; in assay [2] it was 1 to 10 nM. The molecule further gave a half-maximal inhibitory concentration (IC50) with SR (NPM-ALK) cells of 0.0117 ± 0.0042 µM.

Consider `COc1cc(N2CCC(NC(=O)CCCC(=O)N[C@H](C(=O)N3C[C@H](O)C[C@H]3C(=O)NCc3ccc(-c4scnc4C)cc3)C(C)(C)C)CC2)ccc1Nc1ncc(Cl)c(Nc2ccccc2P(C)(C)=O)n1` [SIAIS164144, N1-(1-(4-((5-chloro-4-((2-(dimethylphosphoryl)phenyl)amino)pyrimidin-2-yl)amino)-3-methoxyphenyl)piperidin-4-yl)-N5-((S)-1-((2S,4R)-4-hydroxy-2-((4-(4-methylthiazol-5-yl)benzyl)carbamoyl)pyrrolidin-1-yl)-3,3-dimethyl-1-oxobutan-2-yl)glutaramide], for which the DC50 was in the range of 20 to 100 nM in assay [1] and 1 to 10 nM in assay [2]. Also, in the assay on SR (NPM-ALK) cells, it took 0.0136 ± 0.0091 µM to reach half-maximal inhibition (IC50).
